Experimental findings from PMC4381587, “A novel PI3K inhibitor PIK-C98 displays potent preclinical activity against multiple myeloma” (Oncotarget, 2014) are described below.

One series has as its system STAT3. The series is described as follows: Immunoblotting of STAT3 phosphorylation in OPM2 and JJN3 cells. The settings on record: OPM2 and JJN3, 24 hr. It is filed as cell-based, human. How it is done:
(§1) (B) LP1 and JJN3 cells were starved overnight, then treated with C98 or S14161 for 2 hr, followed by IGF-1 (100 ng/mL) for 15 min. Cells were then prepared for the analysis of the expression of p-AKT, t-AKT, p-IGF-1R, and IGF-1R by immunoblotting. (C) OPM2 and JJN3 cells were treated with increasing concentrations of C98 for 24 hr before being applied to immunoblotting against p-ERK, t-ERK, p-P38, t-P38, p-Src, t-Src, p-STAT3, or t-STAT3. GAPDH and β-actin were used as loading controls.
(§2) To further clarify the effects of C98 on other signaling pathways associated with PI3K signaling, we evaluated ERK and p38, both of which mediate extracellular signaling similar to PI3K. […] We also checked the phosphorylation status of STAT3, a signal transducer and activator of transcription. […] Therefore, C98 had no effects on these kinases/proteins associated with PI3K signaling.
(§3) The immunoblotting assays were performed as described previously. IRDye 680 goat anti-mouse and IRDye 800CW goat anti-rabbit antibodies were from Odyssey (San Ramon, CA, USA).
(In general: Immunoblotting shows a protein as a band on a membrane.)

A further series deals with PTEN. The experiment in a line: Immunoblotting of PTEN protein level in MM cells. It is filed as cell-based. As to conditions: MM cells after C98 treatment. The procedure: To find out whether C98 also interfered with other signaling pathways, we first checked the receptor tyrosine kinase IGF-1R, which mediates PI3K activation in MM cells in the presence of IGF-1. Starved MM cells LP1 and JJN3 were incubated with C98 followed by IGF-1 stimulation. […] Moreover, we also measured the expression of PTEN, a negative regulator of PI3K signaling, in MM cells after C98 treatment.
as §3

The next series relates to c-Src. The experiment in a line: Immunoblotting of c-Src phosphorylation in OPM2 and JJN3 cells. It is filed as cell-based, human. As to conditions: OPM2 and JJN3, 24 hr. How it is done:
as §1, §2, §3

The test system of another series is T1, PDK1.
T1 construct: purchased Reaction Biology Corp., Malvern, PA, USA
The experiment in a line: Kinase activity in cell-free assay, PDK1. The class given is biochemical. As to conditions: enzymatic system, even at a concentration of 300 μM. The procedure: To confirm this hypothesis, the inhibitory potency of C98 on PI3K enzymes was measured in a cell-free system with individual recombinant human PI3K isoforms. […] To further evaluate its specificity on PI3K, the effects of C98 on other associated kinases AKT, PDK1, and mTOR were also measured in the enzymatic systems. […] Therefore, C98 preferred to inhibit PI3K activity.
Kinase activity in the presence of C98 was performed by using the HotSpot technology (Reaction Biology Corp., Malvern, PA, USA) as described previously.

Series [1] deals with KMS11, LP1, OCI-My5, OPM2, JJN3, and RPMI-8226. The experiment in a line: Immunoblotting of PARP and caspase-3 cleavage in MM cell lines. The class given is cell-based. The settings on record: all cell lines examined, 20 μM, 24 hr. How it is done:
To answer whether C98 could induce apoptosis in other MM cells, 5 more MM cells were subject to the study. […] Cell apoptosis induced by C98 was further confirmed by the increased fraction of positive cells stained with Annexin V (Figure 5). To show whether activated PI3K signals can rescue C98 effects on MM cells, both OPM2 and RPMI-8226 cells were treated with IGF-1 alone or together with C98 for 48 hr followed by MTT assay.
Figure 4 C98 activates apoptotic signaling in MM cells (A) JJN3 cells were treated with C98 (0, 2.5, 5, 10, 20 μM) for 24 hr or 10 μM for 0, 3, 6, or 9 hr, followed by immunoblotting for the expression of p-AKT, t-AKT, pro-caspase-3 (Pro-Casp3), and cleaved caspase-3 (Cle-Casp3). (B) KMS11, LP1, OCI-My5, OPM2, JJN3, and RPMI-8226 were treated with C98 (20 μM) for 24 hr, followed by immunoblotting for the expression of PARP, Pro-Casp3, and Cle-Casp3. GAPDH was used as a loading control.
as §3

Series [2] in a line: Pharmacokinetic study in nude mice, oral. It is filed as in vivo. The settings on record: mouse, one oral bolus 40 mg/kg, plasma. The procedure: To further characterize C98 in the treatment of MM, we determined its pharmacokinetic parameters. One bolus of 40 mg/kg of C98 was orally administrated, blood samples were then collected at the time points of 0.167, 0.5, 1, 2, 4, 6, 8, and 24 hr.
Prior to dose administration, nude mice (Shanghai Slac Laboratory Animal Co. Ltd., Shanghai, China) were fasted overnight with free access to water in the regular light-dark cycle. A group of 9 mice received an oral dose of C98 at 40 mg/kg. Blood samples were collected from three mice (n = 3) at each time points as follows: 0.167, 0.5, 1, 2, 4, 6, 8, and 24 hr. Blood samples (100 μL) were immediately mixed with 10 μL of EDTA and plasma was obtained by centrifugation at 1.3 × 10^4 rpm for 10 min. Samples were stored at –80°C for LC-MS/MS analysis. Plasma concentration versus time was analyzed using WinNolin software (version 6.2.1, Pharsight, USA) and the pharmacokinetic parameters maximum drug concentration (Cmax), time to reach maximum drug concentration (Tmax), half life (t1/2), area under the plasma level-time curve (AUC) were calculated.
Concentrations of C98 in plasma and in tumor tissues were analyzed by a LC-MS/MS method as described previously. Chromatographic separation was achieved using an Agela Venusil XBP C18 column (50 × 2.1 mm; […] particle size, Bonna-Agela Technologies, Tianjin, China). The column temperature was maintained at 40°C. Gradient elution at a flow rate of 0.3 mL/min was performed using the mobile phases: A, acetonitrile: water: formic acid (5: 95: 0.1, v: v: v) and B, acetonitrile: water: formic acid (95: 5: 0.1, v: v: v).
The mass spectrometer was operated in the negative ionization mode. The ion transitions for the multiple reaction monitored were: C98, 346.6 (M-H)→312.7; betamethasone (internal standard, IS), 391.1 (M-H)→ 361.4, with a dwell time of 100 ms per transition. After setting the collision energy and mass transition for C98 and the Internal standard, all other parameters were optimized for the best sensitivity. Data was processed by the Analyst 1.5.2 data collection and integration software (AB Sciex, Framingham, MA).
Supplementary Figure S5: The time-concentration profiles of C98 in plasma after oral administration. Nude mice were orally administrated C98 at a dose of 40 mg/kg. Blood species were then collected at a serial of time points (0, 0.167, 0.5, 1, 1.5, 2, 4, 6, 8, 24 hr) and subject to LC-MS/MS analysis after treatment as described in the Methods section. Resultant plasma concentration versus time data was analyzed using WinNolin software.
(also on this page, place not known: www.impactjournals.com/oncotarget/ Oncotarget, Materials 2014 Supplementary) […]

The subject of another series is p38. The experiment in a line: Immunoblotting of p38 phosphorylation in OPM2 and JJN3 cells. The class given is cell-based, human. As to conditions: OPM2 and JJN3, 24 hr. How it is done:
as §1, §2, §3

One may read the MRT as the average time that molecules of a dose stay in the body. For the molecule `N#C/C(=C\C=C\c1ccc(-c2cc(Cl)ccc2Cl)o1)C(N)=S` [C98], the “phosphorylated STAT3” value with STAT3 is on record as “did not decrease”. In addition, in the series with PTEN, the PTEN protein level result was “had no effects on the PTEN protein level”. For the same molecule, the “phosphorylation of c-Src” value in the series on c-Src is “failed to inhibit”. In addition, in the series on PDK1, the “suppression of PDK1 activity” value is reported as “failed to suppress”. Besides, the “cleavage of caspase-3 and PARP (apoptosis)” value in series [1] was “both caspase-3 and PARP were cleaved”. Also, the MRT in series [2] (read-out: mean residence time (MRT)) stood at 4.48 h. In addition, the Cmax in series [2] (read-out: median peak concentration (Cmax)) came out at 367 ng/mL. For the same molecule, the Tmax in series [2] (read-out: time to maximal concentration (Tmax)) came out at 0.5 h. Moreover, in series [2] (nude, po, 40 mg/kg, read-out: half-life (t1/2) (converted)), the half-life is 2.03 h. Besides, the “phosphorylation level of p38” value with p38 was “failed to decrease”.
